Laboratory results from patent US20120053318A1, “METHOD OF RADIOLABELING” (CENTRE FOR PROBE DEVELOPMENT AND COMMERCIALIZATION, priority 2010, published 2012).

Tests used:
[1] = oils selected based on biocompatibility; cited from earlier work
[2] = target: urokinase plasminogen activator receptor (uPAR) (Homo sapiens, UniProt Q03405); assay: binding affinity of Re complexes of the peptides for uPAR; conditions: isostructural to the Tc analogues
Chain of urokinase plasminogen activator receptor (uPAR) (Q03405 23-305): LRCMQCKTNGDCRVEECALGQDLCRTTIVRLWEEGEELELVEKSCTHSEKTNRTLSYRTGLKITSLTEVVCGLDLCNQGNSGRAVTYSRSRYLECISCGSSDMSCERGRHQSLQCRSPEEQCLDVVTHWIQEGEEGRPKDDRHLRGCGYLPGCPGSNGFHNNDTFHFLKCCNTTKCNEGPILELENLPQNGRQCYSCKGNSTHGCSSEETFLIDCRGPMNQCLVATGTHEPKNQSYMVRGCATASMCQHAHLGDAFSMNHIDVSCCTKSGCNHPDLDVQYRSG

| Molecule | LD50 [1] | Ki [2] |
| --- | --- | --- |
| CC(C)CC(C)(C)C [isooctane] | greater than 2000 mg/kg | – |
| D-Cha-F-s-r-Y-L-W-S-SAACII [L2] | – | 0.39 ± 0.1 nM |
| SAACII-S-G-S-G-D-Cha-F-s-r-Y-L-W-S [L1] | – | 1.37 ± 0.83 nM |
